Experimental data as given in publication PMC11696576, “Next generation thiazolyl ketone inhibitors of cytosolic phospholipase A2 α for targeted cancer therapy” (Nature Communications, 2025).

Columns and labels:
[1] = tested on: CCRF-CEM cells; assay: RNA-Seq differential gene expression; type: cell-based, human; conditions: for log2(fold change): Upregulated
Excerpt: Given our findings that the sensitivity to AVX420 was dependent on increased intracellular ROS, we hypothesized that activation of the integrated stress response (ISR) by oxidative damage may be the cause of cell death. The ISR converges on deactivation of the eukaryotic translation initiation factor 2 alpha (eIF2α) to globally suppress translation, with the exception of selected genes (e.g., activating transcription factor (ATF) 4) which activate robust transcriptional changes to restore homeostasis and promote survival or, when oxidative damage is sustained, to initiate programmed cell death. To investigate this, we used a combination of RNA-SEQ and Ribosomal RNA-SEQ (Ribo-SEQ) to measure the global transcriptional and translational response to AVX420 in CCRF-CEM cells. […] Translational effects were determined by calculating the proportion of total transcript associated with the ribosome (ribosomal occupancy (RO)). […] As a positive control we treated cells for 1 hour with the dual mTOR inhibitor Torin-1, which reduced the RO of 20 mRNAs.
CCRF-CEM cells seeded at 200,000 viable cells/mL were treated with AVX420 (0.5 μM) or DMSO (0.1%) and harvested after 1 hour, 6 h, or 16 h. Torin-1 (100 nM) treatment was harvested after 1 h. The flasks were placed on ice and the cell suspensions were transferred to 50 mL conical tubes for centrifugation (405 × g, 4 °C, 5 min). […] The cells were collected and centrifuged at 405 x g for 5 min at 4 °C. The supernatant was discarded, and the cells were suspended in 1 mL of DPBS before centrifugation at 405 x g for 5 min at 4 °C. Resulting cell pellets were snap-frozen in liquid nitrogen and stored at −80 °C. RNA-Seq and ribosome-associated RNA(Ribo)-Seq was performed by Eclipsebio (eclipsebio.com). Protocols are available in the Supplemental Methods section. […]
correction using the Benjamini-Hochberg correction to control the rate of false-posi-tives. Gene sets with false discovery rate <20% were considered significant. […]
RNA-Seq and ribosome-associated RNA(Ribo)-Seq
RNA-Seq and ribosome-associated RNA(Ribo)-Seq was performed by Eclipsebio (eclipsebio.com). The cytosolic fraction of crosslinked cell pellets was isolated and RNA quality and quantity was assessed before 250 ng of the isolated RNA was used to build 3’ RNA-Seq libraries. 10 µg RNA was used for immunoprecipitation (IP) for Ribo-SEQ analysis. Non-crosslinked RNA was removed from the IP through multiple wash steps and the remaining RNA was released via proteinase digestion. RNA from both sources was fragmented and libraries were generated from the poly(A) tails. Li-braries were sequenced on a NextSeq 2 000. After sequencing, samples were pro-cessed with Eclipsebio’s proprietary analysis pipeline (v1). Unique molecular identifi-ers (UMIs) were pruned from read sequences using umitools (v1.1.1). Next 3' adapt-ers were trimmed from reads using cutadapt (v3.2). Reads were then mapped to a cus-tom, curated database of repetitive elements and rRNA sequences. All non -repeat mapped reads were mapped to the genome hg38 using STAR (v2.7.7a) and PCR du-plicates were removed using umi_tools (v1.1.1). Gene coverage was cal culated using Eclipsebio’s proprietary feature counting algorithm and ribosome occupancy was cal-culated by dividing coverage in the ribosome -associated (IP) library by the RNA -Seq library. Differentially expressed and occupied genes were identified using D ESeq2.
Significant differential expression was defined using a cutoff on p.value < 0.01 (after multiple testing adjustment, "padj" metric) and requiring the fold change in gene cov-erage to be greater than 1 or less than -1 (log2 scale). Significance of the ribosomal occupancy (RO) difference was determined by extending DESeq2 models to include RO fold change as an interaction between the experimental condition and the library type. Genes with a RO log2 (fold change) > 1 or < -1 and an adjusted p-value < 0.01 were considered significant. […]

[2] = molecular target: T1, secreted GV sPLA2 (Homo sapiens, UniProt P39877); design: method as in PMID 25152071; conditions: 0.091 mole fraction; previously published data ref 19; cited from earlier work
T1 sequence (P39877 21-138): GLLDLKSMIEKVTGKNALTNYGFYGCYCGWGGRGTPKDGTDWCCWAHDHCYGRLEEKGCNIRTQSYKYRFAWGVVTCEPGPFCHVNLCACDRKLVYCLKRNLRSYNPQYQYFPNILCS

SMILES: CCCCCCCOc1ccc(OCC(=O)c2nc(C(=O)OC)cs2)cc1 [GK420]
- log2(fold change) ([1]; ADM2, 6 h): 1.49
- log2(fold change) ([1]; ATF3, 6 h): 1.05
- changes in gene expression ([1]; CCRF-CEM, 0.5 μM, 1 hour): No significant changes
- log2FC ADM2 ([1]; CCRF-CEM, 0.5 μM, 6 h): 1.49
- log2FC ATF3 ([1]; CCRF-CEM, 0.5 μM, 6 h): 1.05
- log2FC CHAC1 ([1]; CCRF-CEM, 0.5 μM, 6 h): 2.25
- log2FC DDIT3 ([1]; CCRF-CEM, 0.5 μM, 6 h): 1.15
- log2FC ENSG00000260498 ([1]; CCRF-CEM, 0.5 μM, 6 h): 1.44
- log2FC GPT2 ([1]; CCRF-CEM, 0.5 μM, 6 h): 1.24
- log2FC L3MBTL2-AS1 ([1]; CCRF-CEM, 0.5 μM, 6 h): 2.13
- log2FC LINC-PINT ([1]; CCRF-CEM, 0.5 μM, 6 h): 1.34
- log2FC LY9 ([1]; CCRF-CEM, 0.5 μM, 6 h): 1.05
- log2FC SESN2 ([1]; CCRF-CEM, 0.5 μM, 6 h): 1.59
- log2FC SLC6A9 ([1]; CCRF-CEM, 0.5 μM, 6 h): 1.25
- log2FC SLC7A11 ([1]; CCRF-CEM, 0.5 μM, 6 h): 1.57
- log2FC ULBP1 ([1]; CCRF-CEM, 0.5 μM, 6 h): 1.2
- log2FC VLDLR ([1]; CCRF-CEM, 0.5 μM, 6 h): 1.27
- log2FC VLDLR-AS1 ([1]; CCRF-CEM, 0.5 μM, 6 h): 1.02
- log2FC YAP1 ([1]; CCRF-CEM, 0.5 μM, 6 h): 1.04
- number of genes upregulated ([1]; CCRF-CEM, 0.5 μM, 6 h): 16
- number of differentially expressed genes (DEGs) ([1]; CCRF-CEM, 0.5 μM, 16 h): 82
- log2FoldChange ADM2 ([1]; CCRF-CEM, 0.5 μM, 16 hours): 2.31
- log2FoldChange AQP3 ([1]; CCRF-CEM, 0.5 μM, 16 hours): -1.1
- log2FoldChange B4GALNT1 ([1]; CCRF-CEM, 0.5 μM, 16 hours): 2.37
- log2FoldChange CAMKK1 ([1]; CCRF-CEM, 0.5 μM, 16 hours): -1.18
- log2FoldChange CAMKV ([1]; CCRF-CEM, 0.5 μM, 16 hours): -1.07
- log2FoldChange CHAC1 ([1]; CCRF-CEM, 0.5 μM, 16 hours): 3.51
- log2FoldChange DUSP2 ([1]; CCRF-CEM, 0.5 μM, 16 hours): -1.04
- log2FoldChange ENSG00000260498 ([1]; CCRF-CEM, 0.5 μM, 16 hours): 2.28
- log2FoldChange GPT2 ([1]; CCRF-CEM, 0.5 μM, 16 hours): 3.48
- log2FoldChange HRG ([1]; CCRF-CEM, 0.5 μM, 16 hours): 2.92
- log2FoldChange IFRD1 ([1]; CCRF-CEM, 0.5 μM, 16 hours): 2.08
- log2FoldChange L3MBTL2-AS1 ([1]; CCRF-CEM, 0.5 μM, 16 hours): 3.01
- log2FoldChange LINC02970 ([1]; CCRF-CEM, 0.5 μM, 16 hours): 3.49
- log2FoldChange LRRTM1 ([1]; CCRF-CEM, 0.5 μM, 16 hours): -1.11
- log2FoldChange MIR22HG ([1]; CCRF-CEM, 0.5 μM, 16 hours): 2.58
- log2FoldChange MYT1 ([1]; CCRF-CEM, 0.5 μM, 16 hours): -1.13
- log2FoldChange NDUFA4L2 ([1]; CCRF-CEM, 0.5 μM, 16 hours): 2.19
- log2FoldChange NMRAL2P ([1]; CCRF-CEM, 0.5 μM, 16 hours): 2.89
- log2FoldChange NOL3 ([1]; CCRF-CEM, 0.5 μM, 16 hours): 2.29
- log2FoldChange OSGIN1 ([1]; CCRF-CEM, 0.5 μM, 16 hours): 3.08
- log2FoldChange PNMA1 ([1]; CCRF-CEM, 0.5 μM, 16 hours): -1.02
- log2FoldChange RAG1 ([1]; CCRF-CEM, 0.5 μM, 16 hours): -1.12
- log2FoldChange RFPL1S ([1]; CCRF-CEM, 0.5 μM, 16 hours): 2.61
- log2FoldChange RPL23AP42 ([1]; CCRF-CEM, 0.5 μM, 16 hours): -2.03
- log2FoldChange SESN2 ([1]; CCRF-CEM, 0.5 μM, 16 hours): 2.53
- log2FoldChange SLC6A9 ([1]; CCRF-CEM, 0.5 μM, 16 hours): 2.93
- log2FoldChange SLC7A11 ([1]; CCRF-CEM, 0.5 μM, 16 hours): 3.42
- log2FoldChange THOC3 ([1]; CCRF-CEM, 0.5 μM, 16 hours): -1.74
- log2FoldChange TM6SF1 ([1]; CCRF-CEM, 0.5 μM, 16 hours): 2.49
- log2FoldChange VLDLR-AS1 ([1]; CCRF-CEM, 0.5 μM, 16 hours): 2.44
- log2(fold change) ([1]; CHAC1, 6 h): 2.25
- log2(fold change) ([1]; DDIT3, 6 h): 1.15
- log2(fold change) ([1]; ENSG00000260498, 6 h): 1.44
- log2(fold change) ([1]; GPT2, 6 h): 1.24
- log2(fold change) ([1]; L3MBTL2-AS1, 6 h): 2.13
- log2(fold change) ([1]; LINC-PINT, 6 h): 1.34
- log2(fold change) ([1]; LY9, 6 h): 1.05
- log2(fold change) ([1]; SESN2, 6 h): 1.59
- log2(fold change) ([1]; SLC6A9, 6 h): 1.25
- log2(fold change) ([1]; SLC7A11, 6 h): 1.57
- log2(fold change) ([1]; ULBP1, 6 h): 1.2
- log2(fold change) ([1]; VLDLR, 6 h): 1.27
- log2(fold change) ([1]; VLDLR-AS1, 6 h): 1.02
- log2(fold change) ([1]; YAP1, 6 h): 1.04

SMILES: CCCCCCCCc1ccc(OCC(=O)c2nc(C(=O)OC)cs2)cc1 [GK470]
- GV sPLA2 % Inhib [2]: 41%
